This is an account of results in article PMC4311633, “Effects of RAMEA-complexed polyunsaturated fatty acids on the response of human dendritic cells to inflammatory signals” (Beilstein Journal of Organic Chemistry, 2014).

Data set [1] in a line: Solubility in 20% randomly methylated CD solutions and complexation efficiency, DHA. In kind it is physicochemical. The conditions noted are these: calculated from solubility data in 20% CD solution, 24 h, rt. The method, then:
(§1) The complexation efficiency calculated from the solubility data characterize the affinity of the various methylated CDs toward the lipids studied (Table 1). The complex association constants were not calculated because the intrinsic solubility in water is so low that it cannot be determined with a precision sufficient for the calculations.
(§2) The solubility of fatty acids in CD solutions was determined by adding PUFAs to the aqueous solutions at 20% RAMEA, RAMEB or RAMEG, respectively, stirring for 24 h at rt and then analyzed the filtered saturated solutions by HPLC using Hypersil ODS column (4 × 125 mm, particle size 5 μm) with guard column, mobile phase: acetonitrile/water 75:25 with 0.15% concentrated phosphoric acid, 2.0 mL/min flow rate, at 40 °C and UV detection at 210 nm.

A short description of data set [2]: Solubility in 20% randomly methylated CD solutions and complexation efficiency, EPA. The format is physicochemical. The conditions noted are these: calculated from solubility data in 20% CD solution, 24 h, rt. As to the method: as §1, §2
A short description of data set [3]: Solubility in 20% randomly methylated CD solutions and complexation efficiency, ALA. In kind it is physicochemical. Particulars: calculated from solubility data in 20% CD solution, 24 h, rt. The method, then: as §1, §2
A short description of data set [4]: Solubility in 20% randomly methylated CD solutions and complexation efficiency, cholesterol. In kind it is physicochemical. The conditions noted are these: for Solubilization of cholesterol: aqueous solution of 20% CD vs distilled water; for Complexation efficiency for Cholesterol: calculated from solubility data in 20% CD solution, 24 h, rt.
Data set [5] can be described thus: Solubilization of n−3 PUFAs in aqueous methylated CD solutions. The format is physicochemical. The conditions noted are these: aqueous solution of 20% CD vs distilled water. As to the method:
Cyclodextrins (CDs) are efficient solubilizers of lipids. […] The solubilizing effect of RAMEA in the case of n−3 PUFAs seems to be high enough for using it as a solubilizer without the risk of interaction with cholesterol-rich lipid rafts in the cell membrane.
as §2

For data set [6], the system named is CD1a cell surface protein in moDC. Nature of the data set: CD1a cell surface expression in moDC by flow cytometry. The conditions noted are these: 20 µM/mL, resting, LPS- or Poly(I:C)-activated moDC; for Expression of CD1a protein on the surface of moDC: RAMEA-complexed PUFA compared with DMSO/ethanol form. In kind it is cell-based, human. The method, then: (§3) Peripheral blood mononuclear cells (PBMC) were separated from buffy coats by Ficoll gradient centrifugation (Amersham Biosciences, Uppsala, Sweden). Monocytes were isolated by positive selection using magnetic cell separation with anti-CD14-conjugated microbeads (Miltenyi Biotech, Bergisch Gladbach, Germany). […] The purified cells were cultured at a density of 10^6 cells/mL in serum free AIMV medium supplemented with 80 ng/mL granulocyte-macrophage colony stimulating factor (GM-CSF) purchased from Gentaur and 50 ng/mL IL-4 from Peprotech.
(§4) On day 0 and day 2 of the in vitro moDC differentiation process the cultures were supplemented with GM-CSF and IL-4 and were treated with 20 µM/mL n−3 PUFAs. On day 5 the fully differentiated cells were activated by 500 ng/mL bacterial lipopolysaccharide (LPS) (Sigma Aldrich) or by 500 ng/mL Poly(I:C) (InvivoGen, San Diego, CA, USA) or were left untreated. The negative controls were treated by DMSO or by 20 µM/mL RAMEA. The positive controls were stimulated by LPS or Poly(I:C) in the absence of PUFAs.
Phenotyping of moDC was performed by flow cytometry using anti-CD83-PE and anti-CD1a-FITC specific antibodes from BioLegend at the protein level (San Diego, CA, USA). Fluorescence intensities were measured with FACSCalibur (BD Biosciences). Data analysis was performed with the FlowJo software (Tree Star, Ashland, OR, USA).
(In general: In flow cytometry, cells or beads pass a laser one at a time.)

In data set [7] the test system is GPR120 receptor expression in moDC. Description: GPR120 expression in moDC by Q-PCR. The format is cell-based, human. Particulars: 20 µM/mL; LPS-activated moDC; Q-PCR normalized to cyclophilin. The method, then:
as §3, §4
GPR120 expression levels were measured by real-time quantitative PCR (Q-PCR). […] Q-PCR was performed using the ABI StepOne Real Time PCR System (Applied Biosystems) and cycle threshold values were determined by using the StepOne v2.1 Software (Applied Biosystems).

With “randomly methylated β-cyclodextrin [RAMEB]”, the “Complexation efficiency for DHA” value in data set [1] is 0.35. The “Complexation efficiency for EPA” value in data set [2] is given as 0.41. The “Complexation efficiency for ALA” value in data set [3] was 0.43. Moreover, in data set [4], the Solubilization of cholesterol result was “cholesterol could be dissolved by RAMEB only” and the “Complexation efficiency for Cholesterol” value is 0.08. Also, the “Solubilization of n−3 PUFAs” value in data set [5] is listed as “solubilized”.

Regarding `CC/C=C\C/C=C\C/C=C\C/C=C\C/C=C\C/C=C\CCC(=O)O` [DHA, docosahexaenoic acid], in data set [6] (PUFA dissolved in DMSO/ethanol), the “Proportion of inflammatory CD1a+ cells” value is recorded as “more efficient in decreasing the proportion of inflammatory CD1a^+ cells, than ALA or EPA”. Also, the “Expression of CD1a protein on the surface of moDC” value in data set [6] is given as “solubilization method did not influence the effects”. Besides, in data set [7], the GPR120 receptor expression result is “induced preferentially by DHA”.

As for `CC/C=C\C/C=C\C/C=C\CCCCCCCC(=O)O` [ALA, α-linoleic acid], the “Expression of CD1a protein on the surface of moDC” value in data set [6] is recorded as “solubilization method did not influence the effects”.

Take “randomly methylated α-cyclodextrin [RAMEA]”: in data set [1], the “Complexation efficiency for DHA” value is 0.10. Moreover, the “Complexation efficiency for EPA” value in data set [2] was 0.21. Further, the “Complexation efficiency for ALA” value in data set [3] is 0.25. In addition, in data set [4], the Solubilization of cholesterol entry is “Neither RAMEA nor RAMEG could solubilize cholesterol to a measurable extent” and the “Complexation efficiency for Cholesterol” value was below 0.001. In data set [5], the “Solubilization of n−3 PUFAs” value is listed as “solubilized”.
